Data from the NIST ThermoML archive (doi:10.1021/je101361u).

Experiment: xn = mol fraction of the nth substance listed
Details: 101.3 kPa, Liquid, Vibrating tube method

CCOCCOCCOCC [diethylene glycol diethyl ether] + ClCCCl
Details	mass density [kg/m3]
283.15 K, x2 = 0.0234	920.54
283.15 K, x2 = 0.0504	925.19
283.15 K, x2 = 0.0751	929.56
283.15 K, x2 = 0.1009	934.31
283.15 K, x2 = 0.1504	943.66
283.15 K, x2 = 0.2	953.71
283.15 K, x2 = 0.2546	965.43
283.15 K, x2 = 0.2999	975.65
283.15 K, x2 = 0.35	987.75
283.15 K, x2 = 0.4006	1000.78
283.15 K, x2 = 0.4502	1014.42
283.15 K, x2 = 0.5002	1029.16
283.15 K, x2 = 0.5499	1044.87
283.15 K, x2 = 0.6	1061.87
283.15 K, x2 = 0.65	1080.19
283.15 K, x2 = 0.6999	1100.05
283.15 K, x2 = 0.7492	1121.14
283.15 K, x2 = 0.8	1145.22
283.15 K, x2 = 0.85	1171.12
283.15 K, x2 = 0.9	1199.76
283.15 K, x2 = 0.95	1231.56
283.15 K, x2 = 0.975	1248.9
288.15 K, x2 = 0.0234	915.7
288.15 K, x2 = 0.0504	920.3
288.15 K, x2 = 0.0751	924.64
288.15 K, x2 = 0.1009	929.36
288.15 K, x2 = 0.1504	938.64
288.15 K, x2 = 0.2	948.62
288.15 K, x2 = 0.2546	960.24
288.15 K, x2 = 0.2999	970.39
288.15 K, x2 = 0.35	982.41
288.15 K, x2 = 0.4006	995.34
288.15 K, x2 = 0.4502	1008.87
288.15 K, x2 = 0.5002	1023.52
288.15 K, x2 = 0.5499	1039.11
288.15 K, x2 = 0.6	1056
288.15 K, x2 = 0.65	1074.19
288.15 K, x2 = 0.6999	1093.92
288.15 K, x2 = 0.7492	1114.87
288.15 K, x2 = 0.8	1138.79
288.15 K, x2 = 0.85	1164.52
288.15 K, x2 = 0.9	1192.98
288.15 K, x2 = 0.95	1224.58
288.15 K, x2 = 0.975	1241.8
293.15 K, x2 = 0.0234	910.83
293.15 K, x2 = 0.0504	915.41
293.15 K, x2 = 0.0751	919.72
293.15 K, x2 = 0.1009	924.39
293.15 K, x2 = 0.1504	933.61
293.15 K, x2 = 0.2	943.52
293.15 K, x2 = 0.2546	955.05
293.15 K, x2 = 0.2999	965.13
293.15 K, x2 = 0.35	977.05
293.15 K, x2 = 0.4006	989.89
293.15 K, x2 = 0.4502	1003.32
293.15 K, x2 = 0.5002	1017.86
293.15 K, x2 = 0.5499	1033.35
293.15 K, x2 = 0.6	1050.12
293.15 K, x2 = 0.65	1068.18
293.15 K, x2 = 0.6999	1087.77
293.15 K, x2 = 0.7492	1108.58
293.15 K, x2 = 0.8	1132.34
293.15 K, x2 = 0.85	1157.9
293.15 K, x2 = 0.9	1186.17
293.15 K, x2 = 0.95	1217.56
293.15 K, x2 = 0.975	1234.66
298.15 K, x2 = 0.0234	905.98
298.15 K, x2 = 0.0504	910.52
298.15 K, x2 = 0.0751	914.8
298.15 K, x2 = 0.1009	919.44
298.15 K, x2 = 0.1504	928.58
298.15 K, x2 = 0.2	938.42
298.15 K, x2 = 0.2546	949.86
298.15 K, x2 = 0.2999	959.86
298.15 K, x2 = 0.35	971.69
298.15 K, x2 = 0.4006	984.44
298.15 K, x2 = 0.4502	997.77
298.15 K, x2 = 0.5002	1012.21
298.15 K, x2 = 0.5499	1027.58
298.15 K, x2 = 0.6	1044.23
298.15 K, x2 = 0.65	1062.16
298.15 K, x2 = 0.6999	1081.63
298.15 K, x2 = 0.7492	1102.29
298.15 K, x2 = 0.8	1125.89
298.15 K, x2 = 0.85	1151.27
298.15 K, x2 = 0.9	1179.35
298.15 K, x2 = 0.95	1210.52
298.15 K, x2 = 0.975	1227.5
303.15 K, x2 = 0.0234	901.12
303.15 K, x2 = 0.0504	905.62
303.15 K, x2 = 0.0751	909.87
303.15 K, x2 = 0.1009	914.47
303.15 K, x2 = 0.1504	923.55
303.15 K, x2 = 0.2	933.31
303.15 K, x2 = 0.2546	944.67
303.15 K, x2 = 0.2999	954.59
303.15 K, x2 = 0.35	966.34
303.15 K, x2 = 0.4006	978.99
303.15 K, x2 = 0.4502	992.22
303.15 K, x2 = 0.5002	1006.55
303.15 K, x2 = 0.5499	1021.8
303.15 K, x2 = 0.6	1038.33
303.15 K, x2 = 0.65	1056.14
303.15 K, x2 = 0.6999	1075.47
303.15 K, x2 = 0.7492	1095.99
303.15 K, x2 = 0.8	1119.42
303.15 K, x2 = 0.85	1144.62
303.15 K, x2 = 0.9	1172.51
303.15 K, x2 = 0.95	1203.45
303.15 K, x2 = 0.975	1220.32
308.15 K, x2 = 0.0234	896.25
308.15 K, x2 = 0.0504	900.73
308.15 K, x2 = 0.0751	904.95
308.15 K, x2 = 0.1009	909.51
308.15 K, x2 = 0.1504	918.52
308.15 K, x2 = 0.2	928.2
308.15 K, x2 = 0.2546	939.47
308.15 K, x2 = 0.2999	949.32
308.15 K, x2 = 0.35	960.97
308.15 K, x2 = 0.4006	973.53
308.15 K, x2 = 0.4502	986.66
308.15 K, x2 = 0.5002	1000.88
308.15 K, x2 = 0.5499	1016.02
308.15 K, x2 = 0.6	1032.44
308.15 K, x2 = 0.65	1050.11
308.15 K, x2 = 0.6999	1069.3
308.15 K, x2 = 0.7492	1089.67
308.15 K, x2 = 0.8	1112.94
308.15 K, x2 = 0.85	1137.96
308.15 K, x2 = 0.9	1165.64
308.15 K, x2 = 0.95	1196.36
308.15 K, x2 = 0.975	1213.1
313.15 K, x2 = 0.0234	891.38
313.15 K, x2 = 0.0504	895.82
313.15 K, x2 = 0.0751	900.01
313.15 K, x2 = 0.1009	904.54
313.15 K, x2 = 0.1504	913.47
313.15 K, x2 = 0.2	923.09
313.15 K, x2 = 0.2546	934.27
313.15 K, x2 = 0.2999	944.04
313.15 K, x2 = 0.35	955.6
313.15 K, x2 = 0.4006	968.06
313.15 K, x2 = 0.4502	981.1
313.15 K, x2 = 0.5002	995.21
313.15 K, x2 = 0.5499	1010.23
313.15 K, x2 = 0.6	1026.51
313.15 K, x2 = 0.65	1044.07
313.15 K, x2 = 0.6999	1063.11
313.15 K, x2 = 0.7492	1083.34
313.15 K, x2 = 0.8	1106.44
313.15 K, x2 = 0.85	1131.28
313.15 K, x2 = 0.9	1158.75
313.15 K, x2 = 0.95	1189.24
313.15 K, x2 = 0.975	1205.85
318.15 K, x2 = 0.0234	886.51
318.15 K, x2 = 0.0504	890.92
318.15 K, x2 = 0.0751	895.06
318.15 K, x2 = 0.1009	899.56
318.15 K, x2 = 0.1504	908.43
318.15 K, x2 = 0.2	917.97
318.15 K, x2 = 0.2546	929.05
318.15 K, x2 = 0.2999	938.75
318.15 K, x2 = 0.35	950.21
318.15 K, x2 = 0.4006	962.59
318.15 K, x2 = 0.4502	975.52
318.15 K, x2 = 0.5002	989.52
318.15 K, x2 = 0.5499	1004.42
318.15 K, x2 = 0.6	1020.6
318.15 K, x2 = 0.65	1038
318.15 K, x2 = 0.6999	1056.9
318.15 K, x2 = 0.7492	1077
318.15 K, x2 = 0.8	1099.91
318.15 K, x2 = 0.85	1124.57
318.15 K, x2 = 0.9	1151.82
318.15 K, x2 = 0.95	1182.08
318.15 K, x2 = 0.975	1198.56
323.15 K, x2 = 0	877.66
323.15 K, x2 = 0.0234	881.62
323.15 K, x2 = 0.0504	886
323.15 K, x2 = 0.0751	890.1
323.15 K, x2 = 0.1009	894.58
323.15 K, x2 = 0.1504	903.37
323.15 K, x2 = 0.2	912.84
323.15 K, x2 = 0.2546	923.83
323.15 K, x2 = 0.2999	933.46
323.15 K, x2 = 0.35	944.83
323.15 K, x2 = 0.4006	957.11
323.15 K, x2 = 0.4502	969.94
323.15 K, x2 = 0.5002	983.83
323.15 K, x2 = 0.5499	998.59
323.15 K, x2 = 0.6	1014.67
323.15 K, x2 = 0.65	1031.92
323.15 K, x2 = 0.6999	1050.67
323.15 K, x2 = 0.7492	1070.63
323.15 K, x2 = 0.8	1093.36
323.15 K, x2 = 0.85	1117.84
323.15 K, x2 = 0.9	1144.87
323.15 K, x2 = 0.95	1174.86
323.15 K, x2 = 0.975	1191.23
328.15 K, x2 = 0.0234	876.73
328.15 K, x2 = 0.0504	881.07
328.15 K, x2 = 0.0751	885.15
328.15 K, x2 = 0.1009	889.59
328.15 K, x2 = 0.1504	898.31
328.15 K, x2 = 0.2	907.7
328.15 K, x2 = 0.2546	918.61
328.15 K, x2 = 0.2999	928.16
328.15 K, x2 = 0.35	939.44
328.15 K, x2 = 0.4006	951.61
328.15 K, x2 = 0.4502	964.34
328.15 K, x2 = 0.5002	978.12
328.15 K, x2 = 0.5499	992.77
328.15 K, x2 = 0.6	1008.71
328.15 K, x2 = 0.65	1025.84
328.15 K, x2 = 0.6999	1044.44
328.15 K, x2 = 0.7492	1064.24
328.15 K, x2 = 0.8	1086.78
328.15 K, x2 = 0.85	1111.08
328.15 K, x2 = 0.9	1137.9
328.15 K, x2 = 0.95	1167.69
328.15 K, x2 = 0.975	1183.9
333.15 K, x2 = 0.0234	871.83
333.15 K, x2 = 0.0504	876.13
333.15 K, x2 = 0.0751	880.18
333.15 K, x2 = 0.1009	884.59
333.15 K, x2 = 0.1504	893.23
333.15 K, x2 = 0.2	902.54
333.15 K, x2 = 0.2546	913.36
333.15 K, x2 = 0.2999	922.86
333.15 K, x2 = 0.35	934.03
333.15 K, x2 = 0.4006	946.09
333.15 K, x2 = 0.4502	958.72
333.15 K, x2 = 0.5002	972.39
333.15 K, x2 = 0.5499	986.94
333.15 K, x2 = 0.6	1002.74
333.15 K, x2 = 0.65	1019.73
333.15 K, x2 = 0.6999	1038.18
333.15 K, x2 = 0.7492	1057.81
333.15 K, x2 = 0.8	1080.17
333.15 K, x2 = 0.85	1104.27
333.15 K, x2 = 0.9	1130.88
333.15 K, x2 = 0.95	1160.44
333.15 K, x2 = 0.975	1176.53
